Experimental data from patent US9771343B2, “2-alkyl-or-aryl-substituted tanshinone derivatives, and preparation method and application thereof” (Hangzhou Bensheng Pharmaceutical Co., Ltd., priority 2011, dated 2017).
Converted amounts (≈) assume the structure as drawn.

Experiments:
[1] = tested on: K562/adr (drug-resistant, chronic myeloid leukemia, CML); test: MTT cell growth inhibition, K562/adr leukemia cells, 72 h; assay type: cell-based; conditions: Homo sapiens, K562/Adr
Description: (§1) The standard sample of tanshinone I (TA) and the 2-alkyl- or 2-aromatic-substituted tanshinone I derivatives of the present invention are sufficiently dissolved in dimethylsulfoxide to produce a stock solution of 10 mg/mL, which is refrigerated at 4° C. and stored in dark, and is diluted with cell culture medium to a desired concentration prior to experimentation.
(§2) Obtaining 6000 well-growing leukemia cells and inoculating them into wells of a 96-well cell culture plate. The culture medium is the RPMI-1640 cell culture medium containing 10% fetal bovine serum. After adding on the second day the 2-alkyl- or 2-aromatic-substituted tanshinone I derivatives of different concentrations and mixing uniformly, placing the plate in a carbon dioxide cell incubator (5% CO2) at 37° C. and incubated for 72 hours. Then the viable cell concentration is determined by MTT method. In this experiment, the cell viability in control group (not treated with any compound) is set as 100%, and the cell viability (%) after treatment by the compounds and the half maximum inhibitory concentration for the leukemia cell at 72 hours (IC50 value of 72 hours, μg/mL) are calculated.

[2] = tested on: Kasumi-1 (acute myeloid leukemia M2 type, AML-M2); test: MTT cell growth inhibition, Kasumi-1 leukemia cells, 72 h; assay type: cell-based; conditions: Homo sapiens, Kasumi-1, 72 h
Description: as §1, §2

[3] = tested on: NB4 (acute promyelocytic leukemia, AML); test: MTT cell growth inhibition, NB4 leukemia cells, 72 h; assay type: cell-based; conditions: NB4, 72 h
Description: as §1, §2

[4] = tested on: Jurkat (acute lymphoblastic leukemia, ALL); test: MTT cell growth inhibition, Jurkat leukemia cells, 72 h; assay type: cell-based
Description: as §1, §2

[5] = tested on: H9 (acute lymphoblastic leukemia, ALL); test: MTT cell growth inhibition, H9 leukemia cells, 72 h; assay type: cell-based; conditions: H9, 72 h
Description: as §1, §2

[6] = tested on: RPMI8226 (multiple myeloma); test: MTT cell growth inhibition, RPMI8226 multiple myeloma cells, 72 h; assay type: cell-based, human
Description: as §1, §2

A549 (human lung cancer) = test: MTT cell growth inhibition, A549 cells, 72 h; assay type: cell-based; conditions: Homo sapiens, A549, 72 h
Description: as §1, with “with a” for “with”, “to the” for “to a”
(§3) Obtaining 6000 well-growing human solid tumor cells and inoculating them into wells of a 96-well cell culture plate. The culture medium is DMEM High Glucose cell culture medium containing 10% fetal bovine serum. The plate is placed in a carbon dioxide cell incubator (5% CO2) at 37° C. and incubated for 24 hours. After adding the 2-alkyl- or 2-aromatic-substituted tanshinone I derivatives of different concentrations and mixing uniformly, the plate is placed in a carbon dioxide cell incubator (5% CO2) at 37° C. and incubated for 72 hours. Then the viable cell concentration is determined by MTT method. In this experiment, the cell viability in control group (not treated with any compound) is set as 100%, and the cell viability (%) after treatment by the compounds and the half maximum inhibitory concentration for the leukemia cell at 72 hours (IC50 value of 72 hours, μg/mL) are calculated.

[7] = tested on: PANC-1 (pancreatic cancer); test: MTT cell growth inhibition, PANC-1 cells, 72 h; assay type: cell-based, human; conditions: Homo sapiens, PANC-1, 72 h
Description: as §1, with “with a” for “with”, “to the” for “to a”
as §3

[8] = tested on: Becap37 (human breast cancer cell); test: MTT cell growth inhibition, Becap37 cells, 72 h; assay type: cell-based
Description: as §1, with “with a” for “with”, “to the” for “to a”
as §3

MG63 (osteosarcoma) = test: MTT cell growth inhibition, MG63 cells, 72 h; assay type: cell-based, human; conditions: Homo sapiens, MG-63, 72 h
Description: as §1, with “with a” for “with”, “to the” for “to a”
as §3

[9] = tested on: Hep G2 (human liver cancer cell); test: MTT cell growth inhibition, Hep G2 cells, 72 h; assay type: cell-based
Description: as §1, with “with a” for “with”, “to the” for “to a”
as §3

[10] = tested on: RKO (human colon adenocarcinoma cell); test: MTT cell growth inhibition, RKO cells, 72 h; assay type: cell-based
Description: as §1, with “with a” for “with”, “to the” for “to a”
as §3

[11] = tested on: U87 MG (malignant glioma cell); test: MTT cell growth inhibition, U87 MG cells, 72 h; assay type: cell-based, human
Description: as §1, with “with a” for “with”, “to the” for “to a”
as §3

[12] = tested on: Hela (human cervical cancer cell); test: MTT cell growth inhibition, Hela cells, 72 h; assay type: cell-based
Description: as §1, with “with a” for “with”, “to the” for “to a”
as §3

[13] = tested on: CaES-17 (esophageal cancer cell); test: MTT cell growth inhibition, CaES-17 cells, 72 h; assay type: cell-based, human; conditions: Homo sapiens, CaEs17, CaEs-17, 72 h
Description: as §1, with “with a” for “with”, “to the” for “to a”
as §3

[14] = tested on: CNE (nasopharyngeal carcinoma cell); test: MTT cell growth inhibition, CNE cells, 72 h; assay type: cell-based, human
Description: as §1, with “with a” for “with”, “to the” for “to a”
as §3

[15] = tested on: Hep-2 (laryngeal carcinoma); test: MTT cell growth inhibition, Hep-2 cells, 72 h; assay type: cell-based, human; conditions: Homo sapiens, HEp-2, 72 h
Description: as §1, with “with a” for “with”, “to the” for “to a”
as §3

[16] = tested on: MGC 803 (human gastric cancer cell); test: MTT cell growth inhibition, MGC 803 cells, 72 h; assay type: cell-based; conditions: Homo sapiens, MGC-803, 72 h
Description: as §1, with “with a” for “with”, “to the” for “to a”
as §3

PC-3 (prostate cancer) = test: MTT cell growth inhibition, PC-3 cells, 72 h; assay type: cell-based, human; conditions: Homo sapiens, PC-3, 72 h
Description: as §1, with “with a” for “with”, “to the” for “to a”
as §3

[17] = tested on: SK-OV-3 (ovarian cancer cell); test: MTT cell growth inhibition, SK-OV-3 cells, 72 h; assay type: cell-based, human
Description: as §1, with “with a” for “with”, “to the” for “to a”
as §3

IC50 ([1]; read-out: IC50): 1.36 µg/mL (≈ 3.07 µM)
IC90 ([1]; read-out: IC90): 7.61 µg/mL (≈ 17.2 µM)
IC50 ([2]; read-out: IC50): 0.97 µg/mL (≈ 2.19 µM)
IC90 ([2]; read-out: IC90): 31.1 µg/mL (≈ 70.3 µM)
IC50 ([3]; read-out: IC50): 0.31 µg/mL (≈ 0.701 µM)
IC90 ([3]; read-out: IC90): 3.22 µg/mL (≈ 7.28 µM)
IC50 ([4]; Homo sapiens, 72 h, read-out: IC50): 0.48 µg/mL (≈ 1.08 µM)
IC90 ([4]; Homo sapiens, 72 h, read-out: IC90): > 16 µg/mL
IC50 ([5]; read-out: IC50): 3 µg/mL (≈ 6.78 µM)
IC90 ([5]; read-out: IC90): > 16 µg/mL
IC50 ([6]; Homo sapiens, RPMI 8226, 72 h, read-out: IC50): 0.58 µg/mL (≈ 1.31 µM)
IC90 ([6]; Homo sapiens, RPMI 8226, 72 h, read-out: IC90): 16.2 µg/mL (≈ 36.6 µM)
IC50 (A549 (human lung cancer); read-out: IC50): 6.68 µg/mL (≈ 15.1 µM)
IC90 (A549 (human lung cancer); read-out: IC90): 25.9 µg/mL (≈ 58.5 µM)
IC50 ([7]; read-out: IC50): 7.34 µg/mL (≈ 16.6 µM)
IC90 ([7]; read-out: IC90): 24.1 µg/mL (≈ 54.5 µM)
IC50 ([8]; Homo sapiens, Becap-37, 72 h, read-out: IC50): 1.99 µg/mL (≈ 4.5 µM)
IC90 ([8]; Homo sapiens, Becap-37, 72 h, read-out: IC90): 7.83 µg/mL (≈ 17.7 µM)
IC50 (MG63 (osteosarcoma); read-out: IC50): 1.62 µg/mL (≈ 3.66 µM)
IC90 (MG63 (osteosarcoma); read-out: IC90): 7.44 µg/mL (≈ 16.8 µM)
IC50 ([9]; Homo sapiens, HepG2, Hep G2, 72 h, read-out: IC50): 2.09 µg/mL (≈ 4.72 µM)
IC90 ([9]; Homo sapiens, HepG2, Hep G2, 72 h, read-out: IC90): 16.3 µg/mL (≈ 36.9 µM)
IC50 ([10]; Homo sapiens, RKO, 72 h, read-out: IC50): 0.87 µg/mL (≈ 1.97 µM)
IC90 ([10]; Homo sapiens, RKO, 72 h, read-out: IC90): 26.6 µg/mL (≈ 60 µM)
IC50 ([11]; Homo sapiens, U-87 MG, U87-MG, 72 h, read-out: IC50): 2.85 µg/mL (≈ 6.44 µM)
IC90 ([11]; Homo sapiens, U-87 MG, U87-MG, 72 h, read-out: IC90): 15.4 µg/mL (≈ 34.9 µM)
IC50 ([12]; Homo sapiens, HeLa, 72 h, read-out: IC50): 1.07 µg/mL (≈ 2.42 µM)
IC90 ([12]; Homo sapiens, HeLa, 72 h, read-out: IC90): 24 µg/mL (≈ 54.3 µM)
IC50 ([13]; read-out: IC50): 3.78 µg/mL (≈ 8.54 µM)
IC90 ([13]; read-out: IC90): > 16 µg/mL
IC50 ([14]; Homo sapiens, CNE, 72 h, read-out: IC50): 3.2 µg/mL (≈ 7.23 µM)
IC90 ([14]; Homo sapiens, CNE, 72 h, read-out: IC90): 45 µg/mL (≈ 102 µM)
IC50 ([15]; read-out: IC50): 5.27 µg/mL (≈ 11.9 µM)
IC90 ([15]; read-out: IC90): > 16 µg/mL
IC50 ([16]; read-out: IC50): 1.74 µg/mL (≈ 3.93 µM)
IC90 ([16]; read-out: IC90): 16 µg/mL (≈ 36.2 µM)
IC50 (PC-3 (prostate cancer); read-out: IC50): 9.94 µg/mL (≈ 22.5 µM)
IC90 (PC-3 (prostate cancer); read-out: IC90): > 16 µg/mL
IC50 ([17]; Homo sapiens, SK-OV-3, 72 h, read-out: IC50): 11.7 µg/mL (≈ 26.5 µM)
IC90 ([17]; Homo sapiens, SK-OV-3, 72 h, read-out: IC90): > 16 µg/mL
Structure (SMILES): Cc1c(-c2ccc(OCC(O)CO)cc2)oc2c1C(=O)C(=O)c1c-2ccc2c(C)cccc12 (stereo not shown) [BS-TA-301]
improvement of anti-Jurkat activity as compared with tanshinone I per se ([4]; vs tanshinone I): more than 3 fold
anti-RPMI8226 cell line activity (in words) ([6]; as compared with tanshinone I per se): improves the anti-RPMI8226 cell line activity significantly
anti-Becap37 activity (in words) ([8]; Table 2): superior to that of tanshinone I per se
anti-Hep G2 activity (in words) ([9]; Table 2): superior to that of tanshinone I per se
anti-RKO activity (in words) ([10]; Table 2): superior to that of tanshinone I per se
anti-U87 MG activity (in words) ([11]; Table 2): superior to that of tanshinone I per se
anti-Hela activity (in words) ([12]; Table 2): superior to that of tanshinone I per se
anti-CNE activity (in words) ([14]; Table 2): good antitumor activity
anti-SK-OV-3 activity (in words) ([17]; Table 2): superior to that of tanshinone I per se
